Experimental data as given in patent EP3184514A1, “AUTOPHAGY INHIBITORS” (Deutsches Krebsforschungszentrum, priority 2015, dated 2017).
pKd: −log10 of the molar value. Where a name gives a salt, the structure may show the parent alone.

Columns and labels:
LC3 proteins = assay: ITC and NMR titrations; format: binding; settings: by ITC and NMR
Experimental: All ITC experiments were performed at 25 °C using a VP-ITC microcalorimeter (MicroCal Inc, MA, USA) and analyzed with the ITC-Origin 7.0 software (MicroCal Inc.) based on a "one-site binding" reaction. […] Dilution heat of both compounds was measured upon titration of the stocks into buffer. All experiments were performed on a Bruker Avance spectrometer operating at a proton frequency of 500, 600 and 700 MHz at 298 K.

LC3B [1] = biological target: T1, LC3B (Homo sapiens, UniProt Q9GZQ8); assay: AlphaScreen interaction displacement assay (GST-LC3B / biotin-LIRtide); format: binding; settings: Table 1-a; n.e. means no effect
T1 construct: made in house; host or cells: E. coli Rosetta (DE3)
Experimental: The AlphaScreen assay contained 50 mM Tris (pH 7.5), 100 mM NaCl, 0.01% Tween 20, 2 mM DTT, 1 % DMSO and 2-30 nM GST-LC3B and biotin-LIRtide 2-30 nM. The concentrations of GST-LC3B and biotin-LIRtide were experimentally chosen from a cross-titration assay exploring the different combinations of for each batch of protein used and when a new batch of buffer was prepared.
A gene encoding for human LC3B protein inserted in a pET-GST expression vector was used as a template. Rosetta (DE3) competent cells were transformed by started procedure, plated on an LB agar plate with ampicillin (100 µg/ml) and left overnight at 37 °C. Overnight culture was prepared from a single colony and shaken at 180 rpm at 37 °C. LB medium with ampicillin was inoculated with overnight culture (10 ml per 500 ml of LB) and shaken until the optical density at 600 nm (OD600) reached a value of approximately 0.6. Protein expression was then induced with 400 µM IPTG and further incubated for 4 hours. Bacterial culture was centrifuged for 20 minutes at 6000 rpm at 4 °C. The pellet was then resuspended in lysis buffer (20 mM TRIS-HCl pH 7.5, 10 mM EDTA, 5 mM EGTA, 150 mM NaCl, 0.5 % NP40, 1 % Triton X-100, 1 mM DTT, 2 mg/ml lysozyme, 0.05 U/µl benzonase, 1x protease inhibitor cocktail). Lysate was then stored at -20 °C over night. Sample was thawed in water bath and sonicated on ice (40 % amplitude, 30 seconds pulse/30 seconds pause cycle). Lysate was centrifuged at 10000xg at 4 °C for half an hour. Meanwhile, 500 µl of glutathione sepharose beads was equilibrated with lysis buffer and then added to the supernatant. The mixture was incubated and rotated at room temperature for 2 hours. After binding of the protein to the beads, beads were spun down at 500xg at 4 °C for 5 minutes. Pellet was then washed with cold wash buffer at least four times (20 mM Tris-HCl pH 7.5, 10 mM EDTA, 5 mM EGTA, 150 mM NaCl, 1 mM DTT), dried and stored in 5 % glycerol at 4 °C.

LC3B [2] = assay: cellular autophagy screening: LC3B spots by immunocytochemistry and automated confocal imaging; format: cell-based; settings: relative to negative DMSO control, 100 µM, 1 hour; for LC3B inhibition cell based Fold increase of LC3B spots [DMSO control 1.0]: Table 1-a, n.e. means no effect
Experimental: For screening purposes, cells were seeded in 384 well plates and left over night for attachment.
Afterwards, medium was removed and 4 % (w/v) paraformaldehyde (PFA) in PBS buffer was added to the cells for 20 minutes, incubated at room temperature. Cells were permeabilized with 0.1 % (v/v) Triton X-100 for 10 min at room temperature and washed with PBS. Cells were blocked with 3 % (w/v) bovine serum albumin (BSA) in PBS for 45 minutes at 37 °C and then incubated with anti-LC3B (PM036, MBL) or anti-p62 (PM045 or M162-3, MBL) primary antibody diluted in 0.3 % BSA (1:2000 or 1:500) for 1.5-2 hours at 37 °C. Cells were washed three times with PBS.
384 well plates were then analyzed with an automated confocal microscope Opera (PerkinElmer) enabling high throughput high content screening image analysis. […] A water immersion 60x objective was used for optical slicing and stacking (5x0.5 µm stacks). […] Signal was detected with a fast gated CCD camera. Acapella software (PerkinElmer) is an algorithm based high content imaging and analysis software used in multi-parametric multiplex assays. Acapella was used to follow cell viability (i.e. number of cells) and the number of LC3B and p62 spots per cell.
The LC3B protein is a ubiquitin-like protein that can be conjugated to phosphatidylethanolamine (PE) in the membrane of the incipient autophagosome. The nonlipidated and lipidated forms are usually referred to as LC3B-I and LC3B-II, respectively. […] Autophagic flux is often inferred on the basis of LC3B-II turnover, measured by western blot (WB) or immunofluorescence (IF) in the presence and absence of lysosomal degradation. […] Lysosomal degradation can be prevented e.g. through the use of compounds that neutralize the lysosomal pH such as Bafilomycin A1 (BafA1) or chloroquine (CQ). […] An additive or supra-additive effect in LC3B-II levels (WB) and LC3B-positive punctae numbers (IF) may indicate that the treatment enhances autophagic flux. […] This assay can be complemented by simultaneous monitoring of autophagosomal substrates or autophagosomal substrate receptors (e.g. SQSTM1/p62) by WB and/or IF. For example, an increase in LC3B-II levels in combination with the accumulation of SQSTM1/p62 is indicative of a blockage of the autophagy pathway at terminal stages.

U2OS cells = assay: autophagic flux by confocal microscopy and western blotting; format: cell-based, Human; settings: 100 nM, alone
Experimental: […]. After harvesting, cells were lysed with radioimmunoprecipitation assay (RIPA) buffer (50 mM Tris-HCl, pH 7.5, 150 mM NaCl, 0.5 % deoxycholate, 1 % Triton X-100, 0.1 % SDS and 1x protease inhibitors) and left on ice for 30 minutes. Cell lysates were clarified by centrifugation at 10000xg for 20 min at 4 °C. Protein concentrations of the supernatants were determined by BCA assay and the absorbance was measured at 562 nm. SDS-PAGE and WB was performed.
For screening purposes, cells were seeded in 384 well plates and left over night for attachment. […]. For controls, cells were treated with 250 nM torin and/or 100 nM BafA1 for 2 hours.
Afterwards, medium was removed and 4 % (w/v) paraformaldehyde (PFA) in PBS buffer was added to the cells for 20 minutes, incubated at room temperature. Cells were permeabilized with 0.1 % (v/v) Triton X-100 for 10 min at room temperature and washed with PBS. Cells were blocked with 3 % (w/v) bovine serum albumin (BSA) in PBS for 45 minutes at 37 °C and then incubated with anti-LC3B (PM036, MBL) or anti-p62 (PM045 or M162-3, MBL) primary antibody diluted in 0.3 % BSA (1:2000 or 1:500) for 1.5-2 hours at 37 °C. Cells were washed three times with PBS. Secondary Alexa Fluor 488 - labeled antibodies (A-11008, Invitrogen) were diluted in 0.3 % BSA (1:2500) and incubated on cells for 15 minutes at 37 °C. Cells were washed once with PBS, incubated with DRAQ5 (#4084, Cell Signaling) diluted in PBS (1:5000) for 10 minutes and washed three times with PBS.
384 well plates were then analyzed with an automated confocal microscope Opera (PerkinElmer) enabling high throughput high content screening image analysis. […] Signal was detected with a fast gated CCD camera. […]
The LC3B protein is a ubiquitin-like protein that can be conjugated to phosphatidylethanolamine (PE) in the membrane of the incipient autophagosome. […] Autophagic flux is often inferred on the basis of LC3B-II turnover, measured by western blot (WB) or immunofluorescence (IF) in the presence and absence of lysosomal degradation. […]

Row | SMILES | pKd (LC3 proteins) | LC3B inhibition cell free IC50 (LC3B [1]) | LC3B inhibition cell based Fold increase of LC3B spots [DMSO control 1.0] (LC3B [2]) | LC3B Inhibition cell based Fold increase of LC3B spots (LC3B [2]; Table 2a) | amount of LC3B-positive spots and lipidated LC3B (LC3B-II) (U2OS cells)
1 | CO[C@@H]1[C@@H](OC(N)=O)[C@@H](O)[C@H](Oc2ccc3c(O)c(NC(=O)c4ccc(O)c(CC=C(C)C)c4)c(=O)oc3c2C)OC1(C)C [Compound 2-0, Novobiocin Sodium Salt] | 4.30 to 5.30 |  |  |  | 
2 | Fc1ccc(CN2CN=C(SCc3ccc(Cl)cc3)NC2)cc1 [Compound I-15, 6-((4-chlorobenzyl)thio)-3-(4-fluorobenzyl)-1,2,3,4-tetrahydro-1,3,5-triazine] |  | n.e | 5.9 |  | 
3 | Fc1ccc(CN2CN=C(SCc3cccc(Oc4ccccc4)c3)NC2)cc1 [Compound I-16, 3-(4-fluorobenzyl)-6-((3-phenoxybenzyl)thio)-1,2,3,4-tetrahydro-1,3,5-triazine] |  | n.e | n.e. |  | 
4 | Fc1ccc(CN2CN=C(SCc3ccc(Br)cc3)NC2)cc1F [Compound I-17, 6-((4-bromobenzyl)thio)-3-(3,4-difluorobenzyl)-1,2,3,4-tetrahydro-1,3,5-triazine] |  | n.e | 4.2 |  | 
5 | CO/C1=C\C(C)=C\[C@@H](C)[C@@H](O)[C@@H](C)C/C(C)=C/C=C/[C@H](OC)[C@@H]([C@@H](C)[C@@H](O)[C@H](C)[C@@]2(O)C[C@@H](O)[C@H](C)[C@@H](C(C)C)O2)OC1=O [bafilomycin A1, reference compound] |  |  | 5.5 | 5.5 | increased
